Laboratory results from US20260026499A1 (priority 2022, published 2026).
In brackets after ≈: the same amount, converted by molar mass. Like-named read-outs stand apart in the source and are kept apart here.

Legend:
Type in all cases: cell-based
Fusarium oxysporum [1] = experiment: microbe, parasite or virus in culture
Fusarium moniliforme = settings: B = pyraclostrobin; for EC50: Fusarium verticillioides, mycelial growth, method of Example 17; for ATI: ZJS178 as standard reagent
Protocol: (§1) The above-mentioned F. oxysporum f.sp. lycopersici was inoculated on a PDA medium, and 50 μg/mL salicylhydroxamic acid (SHAM) was added to the culture medium to inhibit the […] bypass respiration.
Test object: Fusarium moniliforme preserved in a culture room of the laboratory. The bioassay method was referred to the description in Example 17.

[2] = tested on: F. oxysporum f.sp. niveum; settings: for EC50: Fusarium oxysporum, 72 h
Fusarium oxysporum [3] = experiment: microbe, parasite or virus in culture; settings: for EC50: Fusarium oxysporum, 72 h
Fusarium fujikuroi [4] = experiment: microbe, parasite or virus in culture; settings: for EC50: Fusarium fujikuroi, 72 h
Fusarium graminearum [5] = experiment: microbe, parasite or virus in culture; settings: for ATI: B = prochloraz; for EC50: Fusarium graminearum
[6] = tested on: tebuconazole-sensitive Fusarium graminearum (TS); experiment: microbe, parasite or virus in culture; settings: for EC50: Fusarium graminearum, 72 h; for Actual Toxicity Index (ATI): ZJS178 as standard reagent, TS strain
[7] = tested on: metconazole-resistance Fusarium fujikuroi(MR); experiment: microbe, parasite or virus in culture
Fusarium graminearum [8] = experiment: microbe, parasite or virus in culture; settings: for EC50: Fusarium graminearum, 72 h; for ATI: ZJS178 as standard reagent, B = pydiflumetofen
[9] = tested on: F. oxysporum f.sp. lycopersici; settings: B = azoxystrobin; for EC50: mycelial growth, PDA with 50 μg/mL SHAM, 25° C., 3 days; for ATI: ZJS178 as standard reagent
Protocol: Test object: F. oxysporum f.sp. lycopersici isolated from diseased tomatoes from the field. The tested strains were identified by morphology and pathogenicity, and then stored in the laboratory for future use.
as §1

Fusarium fujikuroi [10] = settings: B = fludioxonil; for EC50: Fusarium fujikuroi, 72 h, mycelial growth, PDA, 25° C., 3 days; for ATI: ZJS178 as standard reagent
From the text: Test object: Fusarium fujikuroi preserved in a culture room of the laboratory.
(§2) The bioassay method was referred to the description in Example 9.

[11] = tested on: metconazole-sensitive Fusarium fujikuroi(MS); experiment: microbe, parasite or virus in culture
Fusarium oxysporum [12] = settings: B = fludioxonil; for EC50: Fusarium oxysporum, 72 h, mycelial growth, PDA, 25° C., 3 days; for ATI: ZJS178 as standard reagent
From the text: Test object: Fusarium oxysporum preserved in the laboratory.
as §2

## CCCN(CCOc1c(Cl)cc(Cl)cc1Cl)C(=O)n1ccnc1.CCCN(CCOc1c(Cl)cc(Cl)cc1Cl)C(=O)n1ccnc1.CCCN(CCOc1c(Cl)cc(Cl)cc1Cl)C(=O)n1ccnc1.CCCN(CCOc1c(Cl)cc(Cl)cc1Cl)C(=O)n1ccnc1.[Cl][Mn][Cl] [Prochloraz-manganese chloride, reference compound]
Fusarium oxysporum [1]
  ATI: 14.46
  EC50: 0.2758 mg/L

## COC(=O)N(OC)c1ccccc1COc1ccn(-c2ccc(Cl)cc2)n1 [Pyraclostrobin (B), methyl N-[2-[[1-(4-chlorophenyl)pyrazol-3-yl]oxymethyl]phenyl]-N-methoxycarbamate, reference compound]
Fusarium moniliforme
  EC50: 4.99 mg/L (≈ 12.9 µM)
  ATI: 13.61

## CCOC(=O)/C(C#N)=C(\N)c1ccc(N(C)CC)cc1 [ZJS178 (A), ethyl 2-cyano-3-amino-3-[4-(N-ethyl-N-methylamino)phenyl]acrylate]
[2]
  EC50: 0.0569 mg/L (≈ 0.208 µM)
[2]; ZJS178 as standard reagent, B = thiophanate-methyl
  Actual Toxicity Index: 100.00
Fusarium moniliforme
  EC50: 0.678 mg/L (≈ 2.48 µM)
  ATI: 100.00
Fusarium oxysporum [3]
  ATI: 100.00
  EC50: 0.0399 mg/L (≈ 0.146 µM)
Fusarium fujikuroi [4]
  ATI: 100.00
  EC50: 0.0671 mg/L (≈ 0.245 µM)
Fusarium graminearum [5]
  ATI: 100.00
  EC50: 0.0379 mg/L (≈ 0.139 µM)
[6]
  EC50: 0.0385 mg/L (≈ 0.141 µM)
  Actual Toxicity Index (ATI): 100.00
[7]; Fusarium fujikuroi, 72 h
  EC50: 0.0621 mg/L (≈ 0.227 µM)
[7]; ZJS178 as standard reagent, MR strain
  ATI: 100.00
Fusarium graminearum [8]
  EC50: 0.0379 mg/L (≈ 0.139 µM)
  ATI: 100.00
[9]; Fusarium oxysporum, 72 h, read-out: EC50
  EC50: 0.0461 mg/L
[9]
  ATI: 100.00
Fusarium fujikuroi [10]
  EC50: 0.0481 mg/L (≈ 0.176 µM)
  ATI: 100.00
[11]
  ATI: 100.00
[11]; Fusarium fujikuroi, 72 h
  EC50: 0.069 mg/L (≈ 0.252 µM)
Fusarium oxysporum [12]
  EC50: 0.0878 mg/L (≈ 0.321 µM)
  ATI: 100.00
Fusarium oxysporum [1]
  ATI: 100.00
Fusarium oxysporum [1]; Fusarium oxysporum
  EC50: 0.0399 mg/L (≈ 0.146 µM)

## CCCN(CCOc1c(Cl)cc(Cl)cc1Cl)C(=O)n1ccnc1 [Prochloraz (B), N-propyl-N-[2-(2,4,6-trichlorophenoxy)ethyl]-imidazole-1-carboxamide, reference compound]
Fusarium graminearum [5]
  ATI: 11.88
  EC50: 0.319 mg/L (≈ 0.847 µM)

## COC(=O)NC(=S)Nc1ccccc1NC(=S)NC(=O)OC [Thiophanate-, 1,2-bis (3-carbomethoxy-2-thioureido)benzene, reference compound]
[2]
  EC50: 0.222 mg/L (≈ 0.65 µM)

## N#Cc1c[nH]cc1-c1cccc2c1OC(F)(F)O2 [Fludioxonil (B), 4-(2,2-difluoro-1,3-benzodioxol-4-yl) pyrrole-3-carbonitrile, reference compound]
Fusarium fujikuroi [10]
  EC50: 0.0529 mg/L (≈ 0.213 µM)
  ATI: 90.93
Fusarium oxysporum [12]
  EC50: 0.0683 mg/L (≈ 0.275 µM)
  ATI: 128.55

## CON(C(=O)c1cn(C)nc1C(F)F)C(C)Cc1c(Cl)cc(Cl)cc1Cl (racemic) [Pydiflumetofen, 3-(difluoromethyl)-N-methoxy-1-methyl-N-[(RS)-1-methyl-2-(2,4,6-trichlorophenyl)ethyl]pyrazole-4-carboxamide, reference compound]
Fusarium graminearum [8]
  EC50: 0.319 mg/L (≈ 0.748 µM)
  ATI: 11.88

## Cc1nn(C)c(F)c1C(=O)Nc1ccccc1C(C)CC(C)C (centres unmarked) [Penflufen (B), 5-fluoro-1,3-dimethyl-N-[2-(4-methylpentan-2-yl)phenyl]-1H-pyrazole-4-carboxamide, reference compound]
Fusarium fujikuroi [4]
  ATI: 22.85
  EC50: 0.294 mg/L (≈ 0.925 µM)

## CO/C=C(/C(=O)OC)c1ccccc1Oc1cc(Oc2ccccc2C#N)ncn1 [Azoxystrobin (B), (E)-methyl 2-{2-[6-(2-cyanophenoxy)pyrimidin-4-yloxy]phenyl}-3-strobilurin, reference compound]
[9]
  ATI: 5.59
  EC50: 0.8247 mg/L

## CC(C)(C)C(O)(CCc1ccc(Cl)cc1)Cn1cncn1 (racemic) [Tebuconazole (B), (RS)-1-p-chlorophenyl-4,4-dimethyl-3-(1H-1,2,4-triazol-1-ylmethyl)pentan-3-ol, reference compound]
Fusarium oxysporum [3]
  ATI: 14.46
  EC50: 0.276 mg/L (≈ 0.896 µM)
[6]
  EC50: 0.175 mg/L (≈ 0.567 µM)
  Actual Toxicity Index (ATI): 22.05
